Experimental findings from ChEMBL document CHEMBL1129489 are described below.

Test [1] deals with D(1A) dopamine receptor (Rattus norvegicus) (UniProt P18901). Kind of test: (§1) Low-affinity agonist dissociation constant against striatal Dopamine receptor D1A. It counts as functional.
In test [2] the target is D(2) dopamine receptor (Rattus norvegicus) (UniProt P61169).
Test [3] concerns the target D(1A) dopamine receptor (Homo sapiens) (UniProt P21728).
For test [4] the target is unchanged. Particulars: COS-7.
For test [5] the target is unchanged. Particulars: COS-7. This is another data set of the same source.
Test [6] shares this target. The description is as §1. It counts as functional.
Test [7] concerns the target D(2) dopamine receptor (Homo sapiens) (UniProt P14416).
Test [8] deals with D(1A) dopamine receptor (Homo sapiens) (UniProt P21728). This is another data set of the same source.
D(1A) dopamine receptor (Homo sapiens), sequence (P21728 whole entry): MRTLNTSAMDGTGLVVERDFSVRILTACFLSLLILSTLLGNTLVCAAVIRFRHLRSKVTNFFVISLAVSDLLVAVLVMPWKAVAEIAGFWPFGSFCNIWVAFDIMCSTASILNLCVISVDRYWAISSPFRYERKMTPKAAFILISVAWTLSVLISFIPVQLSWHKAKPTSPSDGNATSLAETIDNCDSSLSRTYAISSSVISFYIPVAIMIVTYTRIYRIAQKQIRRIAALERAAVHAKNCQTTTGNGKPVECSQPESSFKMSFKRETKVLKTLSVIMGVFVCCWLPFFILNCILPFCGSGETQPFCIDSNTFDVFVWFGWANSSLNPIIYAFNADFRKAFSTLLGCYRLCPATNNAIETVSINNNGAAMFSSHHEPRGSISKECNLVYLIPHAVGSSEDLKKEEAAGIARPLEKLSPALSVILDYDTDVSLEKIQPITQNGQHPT

D(2) dopamine receptor (Rattus norvegicus), sequence (P61169 whole entry): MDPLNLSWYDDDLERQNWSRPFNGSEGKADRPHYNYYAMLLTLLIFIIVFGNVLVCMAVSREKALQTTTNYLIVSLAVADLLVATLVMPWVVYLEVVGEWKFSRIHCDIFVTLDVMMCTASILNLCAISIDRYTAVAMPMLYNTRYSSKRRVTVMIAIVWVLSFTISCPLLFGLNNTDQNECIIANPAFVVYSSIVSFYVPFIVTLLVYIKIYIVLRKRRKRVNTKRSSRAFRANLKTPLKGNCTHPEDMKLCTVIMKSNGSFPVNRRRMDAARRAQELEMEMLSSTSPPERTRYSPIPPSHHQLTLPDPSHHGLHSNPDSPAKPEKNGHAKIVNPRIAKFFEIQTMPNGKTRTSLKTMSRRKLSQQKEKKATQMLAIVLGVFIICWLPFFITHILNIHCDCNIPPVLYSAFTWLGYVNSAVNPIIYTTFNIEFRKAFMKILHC
D(1A) dopamine receptor (Rattus norvegicus), sequence (P18901 whole entry): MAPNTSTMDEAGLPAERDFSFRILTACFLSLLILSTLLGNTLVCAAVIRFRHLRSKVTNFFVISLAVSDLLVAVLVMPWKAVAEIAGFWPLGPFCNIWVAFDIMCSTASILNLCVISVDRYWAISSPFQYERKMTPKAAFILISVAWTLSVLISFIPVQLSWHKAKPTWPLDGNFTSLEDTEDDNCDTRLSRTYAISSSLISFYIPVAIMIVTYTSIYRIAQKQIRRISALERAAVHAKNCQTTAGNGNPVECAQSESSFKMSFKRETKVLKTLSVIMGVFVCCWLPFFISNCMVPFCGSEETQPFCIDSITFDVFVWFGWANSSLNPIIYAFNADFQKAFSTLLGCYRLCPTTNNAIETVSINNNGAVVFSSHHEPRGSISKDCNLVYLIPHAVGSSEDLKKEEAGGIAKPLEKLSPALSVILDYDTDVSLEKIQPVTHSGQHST
D(2) dopamine receptor (Homo sapiens), sequence (P14416 whole entry): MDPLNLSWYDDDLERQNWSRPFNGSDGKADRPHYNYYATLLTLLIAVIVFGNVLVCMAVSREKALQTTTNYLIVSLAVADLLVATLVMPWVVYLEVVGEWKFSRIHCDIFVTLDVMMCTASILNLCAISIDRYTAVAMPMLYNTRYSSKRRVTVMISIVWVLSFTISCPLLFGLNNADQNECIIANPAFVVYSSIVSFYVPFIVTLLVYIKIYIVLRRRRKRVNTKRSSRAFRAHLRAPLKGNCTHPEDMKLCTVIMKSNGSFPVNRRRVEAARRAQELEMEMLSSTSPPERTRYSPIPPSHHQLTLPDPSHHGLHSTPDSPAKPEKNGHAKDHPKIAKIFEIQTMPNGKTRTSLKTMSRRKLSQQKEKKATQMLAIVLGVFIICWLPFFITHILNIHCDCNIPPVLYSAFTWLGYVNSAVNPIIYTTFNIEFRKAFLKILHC

Regarding `NCCc1ccc(O)c(O)c1`, in test [1], the KL came to 580 nM.
As for `CCCN1CCc2cccc3c2[C@H]1Cc1ccc(O)c(O)c1-3`, the KL is 625 nM in test [1] and 0.023 µM in test [2].
Regarding `Oc1cc2c(cc1O)[C@@H](c1ccccc1)CNCC2`, the KL in test [1] was found to be 381 nM.
In test [3], `C=CCN1CCc2c(cc(O)c(O)c2Cl)[C@@H](c2ccccc2)C1` came in with a KL of 83 nM. The Log 1/KL in test [4] is -1.92.
As to `NC[C@H](O)c1ccc(O)c(O)c1`, the KL in test [1] was 4140 nM; in test [2], 126 µM. In test [5], the Log 1/Kd worked out at 4.69.
In turn, `Oc1ccc([C@@H]2CNCCc3c2cc(O)c(O)c3Cl)cc1` displayed a KL in test [1] of 1340 nM.
`Oc1ccc(C2CNCCc3c2cc(O)c(O)c3Cl)cc1` (stereo unspecified): the figures for the KL in test [1] and in test [2] were 21 nM and 1 µM, respectively.
For `CNC[C@H](O)c1ccc(O)c(O)c1`, the KL in test [1] is 980 nM; in test [2], 128 µM.
With `CN(C)C1CCc2cc(O)c(O)cc2C1` (stereo unspecified), the KL in test [1] came to 734 nM; in test [2], 0.463 µM.
Regarding `NCCc1c[nH]c2ccc(O)cc12`, the KL in test [1] stood at 6540 nM; in test [2], 183 µM.
`CCCN1CCc2cccc3c2[C@@H]1Cc1ccc(O)c(O)c1-3` showed a KL in test [6] of 5.2 µM.
As for `CN1CCc2cccc3c2[C@H]1Cc1ccc(O)c(O)c1-3`, the KL in test [7] was determined as 127 nM; in test [8], 206 nM.
